This is an account of results in ChEMBL document CHEMBL5724806, “Unraveling interindividual differences and functional consequences of gut microbial metabolism of immunosuppressants” (2024).

Holding throughout (type): ADME
Data set [1] in a line: The drug is tested on Alloscardovia omnicolens strain: DSM21503 for biotransformation under anaerobic condition. The drug concentrations were measured over 6 timepoints collected between 0 and 12 hours of incubation by liquid-chromatography-coupled mass spectrometry (LC–MS). Also on record: dose 5 uM, timepoint 0, 1.5, 3, 6, 9, 12 hours. The following applies: 5 µM.
A short description of data set [2]: The drug is tested on Bifidobacterium longum strain: DSM20088 for biotransformation under anaerobic condition. The drug concentrations were measured over 6 timepoints collected between 0 and 12 hours of incubation by liquid-chromatography-coupled mass spectrometry (LC–MS). Details: dose 5 uM, timepoint 0, 1.5, 3, 6, 9, 12 hours. As to conditions: 5 µM.
Data set [3] is described as follows: The drug is tested on Bacteroides fragilis strain: DSM2151 for biotransformation under anaerobic condition. The drug concentrations were measured over 6 timepoints collected between 0 and 12 hours of incubation by liquid-chromatography-coupled mass spectrometry (LC–MS). Also on record: dose 5 uM, timepoint 0, 1.5, 3, 6, 9, 12 hours. The following applies: 5 µM.

A short description of data set [4]: The drug is tested on Bacteroides ovatus strain: ATCC 8483 for biotransformation under anaerobic condition. The drug concentrations were measured over 6 timepoints collected between 0 and 12 hours of incubation by liquid-chromatography-coupled mass spectrometry (LC–MS). Also on record: dose 5 uM, timepoint 0, 1.5, 3, 6, 9, 12 hours. As to conditions: 5 µM.
Data set [5] is described as follows: The drug is tested on Bacteroides uniformis strain: DSM6597 for biotransformation under anaerobic condition. The drug concentrations were measured over 6 timepoints collected between 0 and 12 hours of incubation by liquid-chromatography-coupled mass spectrometry (LC–MS). Also on record: dose 5 uM, timepoint 0, 1.5, 3, 6, 9, 12 hours. As to conditions: 5 µM.
The nature of data set [6]: The drug is tested on Bacteroides vulgatus strain: DSM1447 for biotransformation under anaerobic condition. The drug concentrations were measured over 6 timepoints collected between 0 and 12 hours of incubation by liquid-chromatography-coupled mass spectrometry (LC–MS). Also on record: dose 5 uM, timepoint 0, 1.5, 3, 6, 9, 12 hours. The following applies: phocaeicola vulgatus, 5 µM.

Data set [7] in a line: The drug is tested on Odoribacter splanchnicus strain: DSM20712 for biotransformation under anaerobic condition. The drug concentrations were measured over 6 timepoints collected between 0 and 12 hours of incubation by liquid-chromatography-coupled mass spectrometry (LC–MS). Also on record: dose 5 uM, timepoint 0, 1.5, 3, 6, 9, 12 hours. The following applies: 5 µM.
Data set [8] in a line: The drug is tested on Coprococcus comes strain: ATCC27758 for biotransformation under anaerobic condition. The drug concentrations were measured over 6 timepoints collected between 0 and 12 hours of incubation by liquid-chromatography-coupled mass spectrometry (LC–MS). Also on record: dose 5 uM, timepoint 0, 1.5, 3, 6, 9, 12 hours. The following applies: 5 µM.
Data set [9] can be described thus: The drug is tested on Eubacterium eligens strain: DSM3376 for biotransformation under anaerobic condition. The drug concentrations were measured over 6 timepoints collected between 0 and 12 hours of incubation by liquid-chromatography-coupled mass spectrometry (LC–MS). Details: dose 5 uM, timepoint 0, 1.5, 3, 6, 9, 12 hours. As to conditions: lachnospira eligens, 5 µM.

Data set [10] in a line: The drug is tested on Eubacterium hallii strain: DSM3353 for biotransformation under anaerobic condition. The drug concentrations were measured over 6 timepoints collected between 0 and 12 hours of incubation by liquid-chromatography-coupled mass spectrometry (LC–MS). Details: dose 5 uM, timepoint 0, 1.5, 3, 6, 9, 12 hours. As to conditions: anaerobutyricum hallii, 5 µM.

The nature of data set [11]: The drug is tested on Eubacterium rectale strain: DSM17629 for biotransformation under anaerobic condition. The drug concentrations were measured over 6 timepoints collected between 0 and 12 hours of incubation by liquid-chromatography-coupled mass spectrometry (LC–MS). Details: dose 5 uM, timepoint 0, 1.5, 3, 6, 9, 12 hours. As to conditions: agathobacter rectalis, 5 µM.

The nature of data set [12]: The drug is tested on Lactobacillus ruminis strain: ATCC25644 for biotransformation under anaerobic condition. The drug concentrations were measured over 6 timepoints collected between 0 and 12 hours of incubation by liquid-chromatography-coupled mass spectrometry (LC–MS). Details: dose 5 uM, timepoint 0, 1.5, 3, 6, 9, 12 hours. As to conditions: ligilactobacillus ruminis, 5 µM.

A short description of data set [13]: The drug is tested on Enterococcus faecalis strain: ATCC29212 for biotransformation under anaerobic condition. The drug concentrations were measured over 6 timepoints collected between 0 and 12 hours of incubation by liquid-chromatography-coupled mass spectrometry (LC–MS). Details: dose 5 uM, timepoint 0, 1.5, 3, 6, 9, 12 hours. The following applies: 5 µM.

Data set [14] can be described thus: The drug is tested on Alloscardovia omnicolens strain: DSM21503 for biotransformation under microaerobic condition. The drug concentrations were measured over 6 timepoints collected between 0 and 12 hours of incubation by liquid-chromatography-coupled mass spectrometry (LC–MS). Details: dose 5 uM, timepoint 0, 1.5, 3, 6, 9, 12 hours. The following applies: 5 µM.

The nature of data set [15]: The drug is tested on Lactobacillus ruminis strain: ATCC25644 for biotransformation under microaerobic condition. The drug concentrations were measured over 6 timepoints collected between 0 and 12 hours of incubation by liquid-chromatography-coupled mass spectrometry (LC–MS). Also on record: dose 5 uM, timepoint 0, 1.5, 3, 6, 9, 12 hours. As to conditions: ligilactobacillus ruminis, 5 µM.

The nature of data set [16]: The drug is tested on Enterococcus faecalis strain: ATCC29212 for biotransformation under microaerobic condition. The drug concentrations were measured over 6 timepoints collected between 0 and 12 hours of incubation by liquid-chromatography-coupled mass spectrometry (LC–MS). The following applies: 5 µM. Also on record: dose 5 uM, timepoint 0, 1.5, 3, 6, 9, 12 hours.

The nature of data set [17]: The drug is tested on the gut metagenome community of A-08 with ENA study accession number: PRJEB31790 for biotransformation under anaerobic condition. The drug concentrations were measured over 7 timepoints collected between 0 and 12 hours of incubation by liquid-chromatography-coupled mass spectrometry (LC–MS). Also on record: dose 5 uM, timepoint 0, 0.75, 1.5, 3, 6, 9, 12 hours. As to conditions: 5 µM.

A short description of data set [18]: The drug is tested on the gut metagenome community of P-02 with ENA study accession number: PRJEB31790 for biotransformation under anaerobic condition. The drug concentrations were measured over 7 timepoints collected between 0 and 12 hours of incubation by liquid-chromatography-coupled mass spectrometry (LC–MS). Details: dose 5 uM, timepoint 0, 0.75, 1.5, 3, 6, 9, 12 hours. The following applies: 5 µM.

Data set [19] in a line: The drug is tested on the gut metagenome community of P-03 with ENA study accession number: PRJEB31790 for biotransformation under anaerobic condition. The drug concentrations were measured over 7 timepoints collected between 0 and 12 hours of incubation by liquid-chromatography-coupled mass spectrometry (LC–MS). The following applies: 5 µM. Also on record: dose 5 uM, timepoint 0, 0.75, 1.5, 3, 6, 9, 12 hours.

The nature of data set [20]: The drug is tested on the gut metagenome community of T-05 with ENA study accession number: PRJEB31790 for biotransformation under anaerobic condition. The drug concentrations were measured over 7 timepoints collected between 0 and 12 hours of incubation by liquid-chromatography-coupled mass spectrometry (LC–MS). The following applies: 5 µM. Details: dose 5 uM, timepoint 0, 0.75, 1.5, 3, 6, 9, 12 hours.

The nature of data set [21]: The drug is tested on the gut metagenome community of A-03 with ENA study accession number: PRJEB31790 for biotransformation under microaerobic condition. The drug concentrations were measured over 7 timepoints collected between 0 and 12 hours of incubation by liquid-chromatography-coupled mass spectrometry (LC–MS). Details: dose 5 uM, timepoint 0, 0.75, 1.5, 3, 6, 9, 12 hours. The following applies: 5 µM.

The nature of data set [22]: The drug is tested on the gut metagenome community of A-06 with ENA study accession number: PRJEB31790 for biotransformation under microaerobic condition. The drug concentrations were measured over 7 timepoints collected between 0 and 12 hours of incubation by liquid-chromatography-coupled mass spectrometry (LC–MS). As to conditions: 5 µM. Also on record: dose 5 uM, timepoint 0, 0.75, 1.5, 3, 6, 9, 12 hours.

Data set [23] can be described thus: The drug is tested on the gut metagenome community of A-08 with ENA study accession number: PRJEB31790 for biotransformation under microaerobic condition. The drug concentrations were measured over 7 timepoints collected between 0 and 12 hours of incubation by liquid-chromatography-coupled mass spectrometry (LC–MS). Details: dose 5 uM, timepoint 0, 0.75, 1.5, 3, 6, 9, 12 hours. As to conditions: 5 µM.

A short description of data set [24]: The drug is tested on the gut metagenome community of T-05 with ENA study accession number: PRJEB31790 for biotransformation under microaerobic condition. The drug concentrations were measured over 7 timepoints collected between 0 and 12 hours of incubation by liquid-chromatography-coupled mass spectrometry (LC–MS). Details: dose 5 uM, timepoint 0, 0.75, 1.5, 3, 6, 9, 12 hours. As to conditions: 5 µM.

Molecules are shown by their SMILES.

For `C[C@]12CCC(=O)C=C1CC[C@@H]1[C@@H]2C(=O)C[C@@]2(C)[C@H]1CC[C@]2(O)C(=O)CO` [CORTISONE], the “Bacterial Biotransformation” value in data set [1], in data set [2], in data set [3], in data set [4], in data set [5] and in [6] was “Compound NOT metabolized” in each case. In addition, the “Bacterial Biotransformation” value in data set [7], in [8], in [9], in [10], in data set [11] and in [12] was “Compound NOT metabolized” in each case. Further, the “Bacterial Biotransformation” value in data set [13] is “Compound NOT metabolized”; in data set [14] it was “Compound NOT metabolized”; in data set [15] it was “Compound NOT metabolized”; in data set [16], “Compound NOT metabolized”; in data set [17], “Compound metabolized”; in data set [18] it was “Compound metabolized”. The “Bacterial Biotransformation” value in data set [19], in [20], in data set [21], in data set [22], in data set [23] and in data set [24] was “Compound metabolized” in each case.

For the compound `C[C@@H]1C[C@H]2[C@@H]3CCC4=CC(=O)C=C[C@]4(C)[C@@]3(F)[C@@H](O)C[C@]2(C)[C@@]1(O)C(=O)CO` [DEXAMETHASONE], the “Bacterial Biotransformation” value in [1], in [2], in data set [3], in data set [4], in data set [5] and in [6] was “Compound NOT metabolized” in each case. The “Bacterial Biotransformation” value in data set [7], in data set [8], in data set [9], in [10], in data set [11] and in data set [12] was “Compound NOT metabolized” each time. The “Bacterial Biotransformation” value in data set [13] is “Compound NOT metabolized”; in data set [14] it was “Compound NOT metabolized”; in data set [15], “Compound NOT metabolized”; in [16], “Compound NOT metabolized”; in data set [17], “Compound NOT metabolized”; in data set [18], “Compound metabolized”. For the same compound, the “Bacterial Biotransformation” value in data set [19] is “Compound NOT metabolized”; in [20] it was “Compound NOT metabolized”; in [21] it was “Compound NOT metabolized”; in [22] it was “Compound metabolized”; in data set [23] it was “Compound metabolized”; in data set [24] it was “Compound NOT metabolized”.

In the case of `COc1ccc([C@@H]2Sc3ccccc3N(CCN(C)C)C(=O)[C@@H]2OC(C)=O)cc1` [DILTIAZEM], the “Bacterial Biotransformation” value in [1] is recorded as “Compound NOT metabolized”; in data set [2], “Compound NOT metabolized”; in [3] it was “Compound NOT metabolized”; in [4] it was “Compound metabolized”; in data set [5] it was “Compound metabolized”; in data set [6], “Compound NOT metabolized”. The “Bacterial Biotransformation” value in data set [7], in data set [8], in [9], in data set [10], in data set [11] and in data set [12] was “Compound NOT metabolized” each time. The “Bacterial Biotransformation” value was “Compound NOT metabolized” in data set [13]; “Compound NOT metabolized” in data set [14]; “Compound NOT metabolized” in [15]; “Compound NOT metabolized” in data set [16]; “Compound metabolized” in [17]; “Compound metabolized” in data set [18]. Moreover, the “Bacterial Biotransformation” value in data set [19] was “Compound metabolized”; in [20], “Compound NOT metabolized”; in [21], “Compound metabolized”; in data set [22], “Compound metabolized”; in [23] it was “Compound metabolized”; in data set [24], “Compound metabolized”.
